In the test the test system is CD2F1 mice, AMSA-resistant P388 leukemia ip, median survival T/C. Nature of the test: NCI In Vivo Anticancer Drug Screen. Data for tumor model P388 Leukemia resistant to AMSA; NSC 249992 (intraperitoneal) in CD2F1 (CDF1) mice. Particulars: endpoint: median survival time, higher = longer survival. The method, then:
The antitumor activity of compounds was measured in mice bearing transplantable tumors. Survival or tumor size were measured and the results are expressed as the measurement made in the treated group (T) divided by the measurement made in the vehicle treated control group (C). The tumor model used in this assay is P388 Leukemia resistant to AMSA; NSC 249992 (intraperitoneal) in CD2F1 (CDF1) mice

Where [1] appears, read: dose: 2.59 mg/kg/injection, schedule: Q04DX003 (ip), vehicle: other.
The mark [2] stands for this setting: dose: 4.32 mg/kg/injection, schedule: Q04DX003 (ip), vehicle: other.
[3] abbreviates: dose: 7.2 mg/kg/injection, schedule: Q04DX003 (ip), vehicle: other.

Where “and” joins values, the source holds several entries; their conditions need not be identical. Identical values can stand only once. Toxic doses and inconclusive results are not listed.

As to `COc1cc(NS(C)(=O)=O)ccc1Nc1c2ccccc2nc2ccccc12`, the T/C (dose: 1.56 mg/kg/injection, schedule: Q04DX003 (ip), vehicle: other) was 93 % of control; the T/C (dose: 2.33 mg/kg/injection, schedule: Q01DX001 (ip), vehicle: other) was 111 % of control; the T/C (dose: 2.59 mg/kg/injection, schedule: Q01DX001 (ip), vehicle: other) is 105 % of control; the T/C (dose: 2.59 mg/kg/injection, schedule: Q04DX001 (ip), vehicle: other) is 105 % of control; the T/C (dose: 2.59 mg/kg/injection, schedule: Q04DX002 (ip), vehicle: other) was 111 % of control and 116 % of control; the T/C (dose: 2.59 mg/kg/injection, schedule: Q04DX003 (ip), vehicle: clinical formulation) is 106 % of control. For the same compound, the T/C under setting [1] was 98 % of control and 100 % of control and 106 % of control; the T/C (dose: 2.59 mg/kg/injection, schedule: Q04DX003 (ip), vehicle: water) was 98 % of control and 100 % of control and 104 % of control; the T/C (dose: 3.89 mg/kg/injection, schedule: Q01DX001 (ip), vehicle: other) is 109 % of control; the T/C (dose: 4.32 mg/kg/injection, schedule: Q01DX001 (ip), vehicle: other) was 105 % of control; the T/C (dose: 4.32 mg/kg/injection, schedule: Q04DX001 (ip), vehicle: other) was 105 % of control; the T/C (dose: 4.32 mg/kg/injection, schedule: Q04DX002 (ip), vehicle: other) is 117 % of control and 120 % of control. Moreover, the T/C (dose: 4.32 mg/kg/injection, schedule: Q04DX003 (ip), vehicle: clinical formulation) was 123 % of control; the T/C under setting [2] is 91 % of control and 101 % of control and 108 % of control; the T/C (dose: 4.32 mg/kg/injection, schedule: Q04DX003 (ip), vehicle: water) was 100 % of control and 101 % of control and 105 % of control; the T/C (dose: 6.48 mg/kg/injection, schedule: Q01DX001 (ip), vehicle: other) is 104 % of control; the T/C (dose: 7.2 mg/kg/injection, schedule: Q01DX001 (ip), vehicle: other) is 101 % of control; the T/C (dose: 7.2 mg/kg/injection, schedule: Q04DX001 (ip), vehicle: other) is 101 % of control. For the same compound, the T/C reads like this: (dose: 7.2 mg/kg/injection, schedule: Q04DX002 (ip), vehicle: other) 101 % of control and 114 % of control; (dose: 7.2 mg/kg/injection, schedule: Q04DX003 (ip), vehicle: clinical formulation) 124 % of control; under setting [3], 97 % of control and 110 % of control and 89 % of control; (dose: 7.2 mg/kg/injection, schedule: Q04DX003 (ip), vehicle: water) 102 % of control and 107 % of control and 113 % of control; (dose: 10.0 mg/kg/injection, schedule: Q04DX003 (ip), vehicle: saline with Tween-80) 120 % of control; (dose: 10.8 mg/kg/injection, schedule: Q01DX001 (ip), vehicle: other) 100 % of control. For the same compound, the T/C runs as follows: (dose: 12.0 mg/kg/injection, schedule: Q01DX001 (ip), vehicle: other) 99 % of control; (dose: 12.0 mg/kg/injection, schedule: Q04DX001 (ip), vehicle: other) 99 % of control; (dose: 12.0 mg/kg/injection, schedule: Q04DX002 (ip), vehicle: other) 119 % of control and 120 % of control; (dose: 12.0 mg/kg/injection, schedule: Q04DX003 (ip), vehicle: other) 90 % of control and 103 % of control (2×); (dose: 12.0 mg/kg/injection, schedule: Q04DX003 (ip), vehicle: water) 102 % of control; (dose: 18.0 mg/kg/injection, schedule: Q01DX001 (ip), vehicle: other) 110 % of control. Besides, the T/C is 90 % of control (dose: 20.0 mg/kg/injection, schedule: Q01DX001 (ip), vehicle: other); 90 % of control (dose: 20.0 mg/kg/injection, schedule: Q04DX001 (ip), vehicle: other); 92 % of control and 111 % of control (dose: 20.0 mg/kg/injection, schedule: Q04DX002 (ip), vehicle: other); 106 % of control (dose: 20.0 mg/kg/injection, schedule: Q04DX003 (ip), vehicle: other); 105 % of control (dose: 30.0 mg/kg/injection, schedule: Q01DX001 (ip), vehicle: other).
As for `COC(=O)[C@@H]1c2cc3c(c(O)c2[C@@H](OC2OC(C)C(OC)C(C)(OC)C2OC)C[C@]1(C)O)C(=O)c1c(O)cc2c(c1C3=O)O[C@H]1O[C@]2(C)[C@H](O)[C@@H](N(C)C)[C@@H]1O` (some centres undefined), the T/C (dose: 0.43 mg/kg/injection, schedule: Q04DX003 (ip), vehicle: water) is 108 % of control; the T/C (dose: 0.52 mg/kg/injection, schedule: Q04DX003 (ip), vehicle: clinical formulation) is 107 % of control; the T/C (dose: 0.72 mg/kg/injection, schedule: Q04DX003 (ip), vehicle: water) was 113 % of control; the T/C (dose: 0.86 mg/kg/injection, schedule: Q04DX003 (ip), vehicle: clinical formulation) is 114 % of control; the T/C (dose: 1.2 mg/kg/injection, schedule: Q04DX003 (ip), vehicle: water) was 107 % of control; the T/C (dose: 1.44 mg/kg/injection, schedule: Q04DX003 (ip), vehicle: clinical formulation) is 112 % of control. For the same compound, the T/C was 118 % of control (dose: 2.0 mg/kg/injection, schedule: Q04DX003 (ip), vehicle: water); 110 % of control (dose: 2.4 mg/kg/injection, schedule: Q04DX003 (ip), vehicle: clinical formulation); 97 % of control (dose: 3.33 mg/kg/injection, schedule: Q04DX003 (ip), vehicle: water).
Turning to `COc1cccc2c1C(=O)c1c(O)c3c(c(O)c1C2=O)C[C@@](O)(C(=O)CO)C[C@@H]3OC1CC(NCc2ccccc2)C(O)C(C)O1` (some centres undefined), the T/C reads like this: (dose: 3.89 mg/kg/injection, schedule: Q04DX003 (ip), vehicle: water) 123 % of control; (dose: 30.0 mg/kg/injection, schedule: Q04DX003 (ip), vehicle: water) 100 % of control.
Consider `CCN(CC)CCNc1ccc(CO)c2sc3ccccc3c(=O)c12`, for which the T/C (dose: 10.36 mg/kg/injection, schedule: Q01DX005 (ip), vehicle: water) is 106 % of control; the T/C (dose: 17.28 mg/kg/injection, schedule: Q01DX005 (ip), vehicle: water) is 117 % of control; the T/C (dose: 28.8 mg/kg/injection, schedule: Q01DX005 (ip), vehicle: water) is 98 % of control; the T/C (dose: 48.0 mg/kg/injection, schedule: Q01DX005 (ip), vehicle: water) was 97 % of control; the T/C (dose: 80.0 mg/kg/injection, schedule: Q01DX005 (ip), vehicle: water) is 87 % of control.
Take `c1ccc2c(NCCCCCCNc3c4ccccc4nc4ccccc34)c3ccccc3nc2c1`: the T/C runs as follows: (dose: 1.94 mg/kg/injection, schedule: Q01DX009 (ip), vehicle: other) 123 % of control; under setting [1], 123 % of control; under setting [2], 110 % of control; under setting [3], 94 % of control; (dose: 7.78 mg/kg/injection, schedule: Q01DX001 (ip), vehicle: water) 93 % of control; (dose: 10.0 mg/kg/injection, schedule: Q01DX009 (ip), vehicle: Klucel (hydroxypropylcellulose) (HPC)) 150 % of control. The T/C (dose: 13.0 mg/kg/injection, schedule: Q01DX001 (ip), vehicle: water) was 98 % of control.
On to `O=NN(CCCl)C(=O)NCCCl`, for which the T/C by setting is: (dose: 3.89 mg/kg/injection, schedule: Q04DX003 (ip), vehicle: saline + alcohol) 164 % of control; (dose: 6.48 mg/kg/injection, schedule: Q04DX003 (ip), vehicle: saline + alcohol) 222 % of control; (dose: 10.8 mg/kg/injection, schedule: Q04DX003 (ip), vehicle: saline + alcohol) 267 % of control; (dose: 18.0 mg/kg/injection, schedule: Q04DX003 (ip), vehicle: saline + alcohol) 387 % of control; (dose: 30.0 mg/kg/injection, schedule: Q04DX003 (ip), vehicle: saline + alcohol) 115 % of control.
As to `COc1cc([C@@H]2c3cc4c(cc3[C@@H](OC3OC5CO[C@@H](c6cccs6)OC5C(O)C3O)[C@H]3COC(=O)[C@H]23)OCO4)cc(OC)c1O` (some centres undefined), for the setting “dose: 25.0 mg/kg/injection, schedule: Q04DX003 (ip), vehicle: clinical formulation”, the T/C is 90 % of control.
For the compound `COc1cccc2c1C(=N)c1c(O)c3c(c(O)c1C2=O)C[C@@](O)(C(C)=O)C[C@@H]3OC1CC(N)C(O)C(C)O1` (some centres undefined), the T/C was 98 % of control (dose: 1.94 mg/kg/injection, schedule: Q04DX003 (ip), vehicle: water); 98 % of control (dose: 3.24 mg/kg/injection, schedule: Q04DX003 (ip), vehicle: water); 97 % of control (dose: 5.4 mg/kg/injection, schedule: Q04DX003 (ip), vehicle: water); 100 % of control (dose: 9.0 mg/kg/injection, schedule: Q04DX003 (ip), vehicle: water); 100 % of control (dose: 15.0 mg/kg/injection, schedule: Q04DX003 (ip), vehicle: water).

(Values after PubChem BioAssay AID324 (DTP/NCI, 2004).)
